Where a name gives a salt, the structure may show the parent alone.

One test has as its system Human osteosarcoma U2OS cells. The test is described as follows: Acidic vesicle formation (lysosome/autolysosome staining, LysoView 633 / LysoTracker Deep Red), stimulation of autophagy. The class given is cell-based. Particulars: 0.8 μM, 24 hours, read-out: Activity (percentage increase in acidic vesicle formation over the DMSO-treated control). The protocol:
Lysosomes play a fundamental role in the autophagic pathway by fusing with autophagosomes and creating ‘autolysosomes’ in order to digest their contents. Stimulation of lysosome and autolysosome formation by a compound is indicative of a stimulation of autophagy. The ability of compounds to stimulate lysosome and autolysosome formation, and thus autophagy, in live cells was assessed via fluorescent microscopy using various fluorescent stains for labelling and tracking acidic organelles (including lysosomes and autolysosomes) such as: LysoView™ 650 (70059 and 70059-T, Biotium), LysoView™633 (70058 and 70058-T, Biotium) and LysoTracker™ Deep Red (L12492, ThermoFisher Scientific). The cellular phenotype was quantitatively assessed for the induction of acidic vesicle formation and compared to a non-treated control, thus providing a measure of the ability of the compound under investigation to stimulate autophagy.
Representative procedure using LysoView™633 dye or LysoTracker™ Deep Red dye: Human osteosarcoma U2OS cells (40,000 cells/well) were seeded in a 24 well glass bottom plate (Sensoplate, Greiner Bio-One) and were incubated overnight in a humidified atmosphere at 37° C. and 5% CO2. Cells were grown in DMEM (Gibco) supplemented with 10% Fetal Bovine Serum (FBS) and 100 units/ml penicillin and 100 μg/ml streptomycin (Invitrogen). After the attachment period, cells were treated with different compounds of interest (at various concentrations in DMSO) or DMSO (non-treated control) in cell culture medium and were incubated for 24 hours. Compound-containing medium was removed and cells were incubated with pre-warmed cell culture medium containing 1× LysoView™ 633 (70058 and 70058-T, Biotium) or 50 nM LysoTracker™ Deep Red (L12492, ThermoFisher Scientific) for 45 minutes at 37° C. Finally, cell nuclei were stained for 10 minutes using Hoechst 33342 (1 μg/mL) and then the medium was replaced with fresh medium. The 24 well plate was then fitted into a heated stage on the microscope and cells maintained at 37° C. Images were captured using appropriate filter set for Cy5 and DAPI detection with the EVOS M7000 Microscope (ThermoFisher Scientific). The cellular phenotype was visually assessed for the induction of acidic vesicle formation relative to the non-treated control; multiple images were acquired and analysed using ImageJ or Cell Profiler.
For the compound `NC[C@@H]1CCN(Cc2cc(Cl)cc3c2OCO3)C1` [Compound 55, (S)-(1-((6-chlorobenzo[d][1,3]dioxol-4-yl)methyl)pyrrolidin-3-yl)methanamine hydrochloride], the activation at 0.8 µM was above 100%.
As for `C[C@H]1CN(Cc2cc(Cl)ccc2OCC2CC2)CCN1` [Compound 46, (S)-1-(5-chloro-2-(cyclopropylmethoxy)benzyl)-3-methylpiperazine hydrochloride], the activation at 0.8 µM lay within 10 to 30%.
On the same count and under the same terms, to `CCCOc1ccc(Cl)cc1CCN1CCC[C@@H](CN)C1` [Compound 43, (S)-(1-(5-chloro-2-propoxyphenethyl)piperidin-3-yl)methanamine hydrochloride] belongs 50 to 100%.

Staying with this test, now noted: 10 μM, 24 hours, read-out: increase in acidic vesicle formation over the DMSO-treated control.
On to `CCOc1cc(Cl)c(Cl)cc1CCN1CC[C@@H](CN)C1` [Compound 35, (S)-(1-(4,5-dichloro-2-ethoxyphenethyl)pyrrolidin-3-yl)methanamine hydrochloride], for which the activation at 10 µM is at least 25%.
Regarding `NC[C@@H]1CCN(Cc2cc(Cl)cc3c2OCO3)C1` [Compound 55, (S)-(1-((6-chlorobenzo[d][1,3]dioxol-4-yl)methyl)pyrrolidin-3-yl)methanamine hydrochloride], the activation at 10 µM was at least 25%.
Consider `C[C@H]1CN(Cc2cc(Cl)ccc2OCC2CC2)CCN1` [Compound 46, (S)-1-(5-chloro-2-(cyclopropylmethoxy)benzyl)-3-methylpiperazine hydrochloride], for which the activation at 10 µM is at least 25%.
Consider `CCCOc1ccc(Cl)cc1CCN1CCC[C@@H](CN)C1` [Compound 43, (S)-(1-(5-chloro-2-propoxyphenethyl)piperidin-3-yl)methanamine hydrochloride], for which the activation at 10 µM is at least 25%.

Another test has as its system U2OS cell line stabling expressing RFP-eGFP-hLC3b. Description: Tandem reporter assay (autophagic flux), RFP-only puncta (autolysosomes). Particulars: Homo sapiens, 0.5 μM, average of two runs, read-out: Activity (Autolysosome % DMSO activity). The class given is cell-based. The protocol: Selected compounds of this invention were also assessed for their ability to stimulate autophagy using a U2OS cell line stabling expressing RFP-eGFP-hLC3b (a tandem reporter cell line). This assay is further described in WO 2023/089074.
LC3b is a protein found in the membrane of autophagosomes which has been used to generate genetic reporters of autophagy in cells. In these systems a tandem fusion of LC3b is engineered with two fluorescent proteins of different wavelengths: one which is acid sensitive (for example eGFP, which fluoresces green) and the other which is acid insensitive (for example RFP, which fluoresces red). Cells expressing RFP-eGFP-hLC3b can be examined using fluorescent microscopy: the autophagosomes present will fluoresce in both channels (either yellow in an overlay of both channels or puncta that are present in both the individual red and green channels) but the autolysosomes present will fluoresce in the RFP (red) channel only. Using a fluorescent microscope, the number of autophagosomes and autolysosomes can be counted, allowing for the monitoring of both the induction of autophagy (total puncta count) and the rate of autophagic flux (ratio of red-only to red-and-green puncta). The influence of small molecules on autophagy induction and flux can be assessed using this system by comparison to a non-treated control.
Representative Procedure: Human osteosarcoma U20S cells stably expressing RFP-eGFP-hLC3b were seeded (10,000 cells/well) into a 96-well glass-bottom plate (Cell Carrier Ultra, Perkin Elmer) in DMEM Glutamax media (Gibco) supplemented with 10% Fetal Bovine Serum (FBS) and antibiotics (100 μg/ml penicillin, 100 μg/ml streptomycin, Invitrogen), then incubated overnight in a humified atmosphere at 37° C. and 5% CO2. The cells were then treated with the compounds of interest, dissolved in DMSO, in a duplicated 5- or 10-point dose-response. 8 wells were treated with an equivalent volume of DMSO, 4 with 0.3 μM torin-1 as a positive control (MCE) and 4 wells with 0.4 μM torin-1 plus 0.2 μM bafilomycin (MCE) as a control for flux inhibition. The cells were returned to the incubator and the treatment continued for 24 hours. After treatment, the media was aspirated off and the cells fixed with a solution of 4% formaldehyde+1% glutaraldehyde (Sigma) in dPBS (plus magnesium and calcium, Gibco). Fixation was allowed to proceed for 15 minutes at room temperature then the fixative solution discarded and replaced with PBS (Gibco) plus Hoescht 33342 (1 μg/ml, Sigma). After 30 minutes the plates were imaged on an Opera Phenix confocal microscope (Perkin-Elmer) using a 40× water objective, collecting using DAPI, mCherry and GFP channels. Cells were detected based upon the staining of their nuclei with DAPI using the Harmony image analysis software (Perkin-Elmer) and the number of autophagosomes (GFP and RFP puncta) and autolysosomes (RFP only puncta) per cell were counted using the spot picking function within the software.
`CCOc1ccc(CN2CCC[C@H](N)C2)cc1Cl` [Compound 92, (S)-1-[(3-chloro-4-ethoxyphenyl)methyl]-3-piperidylamine hydrochloride]: the activity at 0.5 µM lay within 150 to 200%.
Same read-out and setting: the figure for `COCCOc1c(Cl)cc(CCN2CCC[C@@H](N)C2)cc1Cl` [Compound 76, (R)-1-(3,5-dichloro-4-(2-methoxyethoxy)phenethyl)piperidin-3-amine hydrochloride] is 150 to 200%.

The same test, now with this note: Homo sapiens, 0.75 μM, one run, read-out: Activity (Autolysosome % DMSO activity).
Consider `CCOc1c(Cl)cc(CN2CC[C@@H](CN)C2)cc1Cl` [Compound 70, (S)-(1-(3,5-dichloro-4-ethoxybenzyl)pyrrolidin-3-yl)methanamine hydrochloride], for which the activity at 0.75 µM lay within 150 to 200%.

The test is the same for the next values; noted with them: Homo sapiens, 0.833 μM, average of two runs, read-out: Activity (Autolysosome % DMSO activity).
As for `CCOc1ccc(CCN2CCC(N)CC2)cc1Cl` [Compound 71, 1-(3-chloro-4-ethoxyphenethyl)piperidin-4-amine hydrochloride], the activity at 0.833 µM is 150 to 200%.

The test is the same for the next values; noted with them: Homo sapiens, 1.25 μM, average of two runs, read-out: Activity (Autolysosome % DMSO activity).
Regarding `CCOc1ccc(C#N)cc1CCN1CC[C@@H](N)C1` [Compound 87, 3-{2-[(R)-3-amino-1-pyrrolidinyl]ethyl}-4-ethoxybenzonitrile hydrochloride], the activity at 1.25 µM lay within 150 to 200%.
For the compound `NC1CCN(Cc2cc(Cl)c(OCC3CC3)c(Cl)c2)CC1` [Compound 98, 1-{[3,5-dichloro-4-(cyclopropylmethoxy)phenyl]methyl}-4-piperidylamine hydrochloride], the activity at 1.25 µM fell in the range of 150 to 200%.
On the same count and under the same terms, the figure for `CCOc1ccc(C#N)cc1CCN1CCC[C@@H](N)C1` [Compound 84, (R)-3-(2-(3-aminopiperidin-1-yl)ethyl)-4-ethoxy benzonitrile hydrochloride] is 200 to 250%; for `CCOc1ccc(CN2CCC(N)CC2)cc1Cl` [Compound 75, 1-(3-chloro-4-ethoxybenzyl)piperidin-4-amine hydrochloride] it is 200 to 250%; for `CCOc1c(Cl)cc(CN2CCC(N)CC2)cc1Cl` [Compound 90, 1-[(3,5-Dichloro-4-ethoxyphenyl)methyl]-4-piperidylamine hydrochloride] it is 200 to 250%.
As for `N[C@H]1CCN(Cc2cc(Cl)c(OCC3CC3)c(Cl)c2)C1` [Compound 77, (S)-1-(3,5-dichloro-4-(cyclopropylmethoxy)benzyl)pyrrolidin-3-amine hydrochloride], the activity at 1.25 µM was 250 to 300%.
For the compound `CCOc1ccc(CN2CCC[C@@H](N)C2)cc1Cl` [Compound 93, (R)-1-[(3-chloro-4-ethoxyphenyl)methyl]-3-piperidylamine hydrochloride], the activity at 1.25 µM fell in the range of 150 to 200%.
As to `COCCOc1ccc(CN2CCC(N)CC2)cc1Cl` [Compound 95, 1-{[3-chloro-4-(2-methoxyethoxy)phenyl]methyl}-4-piperidylamine hydrochloride], the activity at 1.25 µM fell in the range of 200 to 250%.
On to `N[C@@H]1CCN(CCc2ccc(OCC3CC3)c(Cl)c2)C1` [Compound 99, (R)-1-{2-[3-chloro-4-(cyclopropylmethoxy)phenyl]ethyl}-3-pyrrolidinylamine hydrochloride], for which the activity at 1.25 µM is 150 to 200%.
In the case of `N[C@H]1CCCN(CCc2cc(Cl)c(OCC3CC3)c(Cl)c2)C1` [Compound 74, (S)-1-(3,5-dichloro-4-(cyclopropylmethoxy)phenethyl)piperidin-3-amine hydrochloride], the activity at 1.25 µM was above 300%.
On to `N[C@H]1CCCN(CCc2ccc(OCC3CC3)c(Cl)c2)C1` [Compound 79, (S)-1-(3-chloro-4-(cyclopropylmethoxy)phenethyl)piperidin-3-amine formate salt], for which the activity at 1.25 µM lay within 250 to 300%.
With `N[C@H]1CCN(CCc2ccc(OCC3CC3)c(Cl)c2)C1` [Compound 100, (S)-1-{2-[3-chloro-4-(cyclopropylmethoxy)phenyl]ethyl}-3-pyrrolidinylamine hydrochloride], the activity at 1.25 µM lay in the range of 150 to 200%.
Regarding `CCOc1ccc(C#N)cc1CCN1CC[C@H](N)C1` [Compound 86, (S)-3-(2-(3-aminopyrrolidin-1-yl)ethyl)-4-ethoxy benzonitrile hydrochloride], the activity at 1.25 µM fell in the range of 150 to 200%.
For `N[C@@H]1CCCN(CCc2cc(Cl)c(OCC3CC3)c(Cl)c2)C1` [Compound 78, (R)-1-(3,5-dichloro-4-(cyclopropylmethoxy)phenethyl)piperidin-3-amine hydrochloride], the activity at 1.25 µM was in the range of 200 to 250%.
On to `CCOc1ccc(C#N)cc1CCN1CCC[C@H](N)C1` [Compound 83, (S)-3-(2-(3-aminopiperidin-1-yl)ethyl)-4-ethoxybenzonitrile hydrochloride], for which the activity at 1.25 µM was 200 to 250%.
The same measure, in the same setting: to `N[C@H]1CCCN(Cc2cc(Cl)c(OCC3CC3)c(Cl)c2)C1` [Compound 96, (S)-1-{[3,5-dichloro-4-(cyclopropylmethoxy)phenyl]methyl}-3-piperidylamine hydrochloride] belongs 200 to 250%; to `COCCOc1c(Cl)cc(CN2CCC(N)CC2)cc1Cl` [Compound 94, 1-{[3,5-dichloro-4-(2-methoxyethoxy)phenyl]methyl}-4-piperidylamine hydrochloride], 150 to 200%.

The test is the same for the next values; noted with them: Homo sapiens, 1.25 μM, one run, read-out: Activity (Autolysosome % DMSO activity).
Take `NC1CCN(CCc2cc(Cl)c(OCC3CC3)c(Cl)c2)CC1` [Compound 91, 1-{2-[3,5-Dichloro-4-(cyclopropylmethoxy)phenyl]ethyl}-4-piperidylamine hydrochloride]: the activity at 1.25 µM lay in the range of 150 to 200%.
